Test results published in paper PMC10762035, “Molecular basis of human trace amine-associated receptor 1 activation” (Nature Communications, 2024).
Where a chain is given by its changes, count along the chain named. Several values for one entry are separate records, joined by “and”; a condition that tells them apart may be missing. Equal values may be shown once. Read-outs that look alike come from different tables or passages of the source.

Tests used:
hTA1 b2N = molecular target: T1, hTA1 b2N (Homo sapiens, UniProt Q96RJ0); experiment: GloSensor cAMP accumulation assay, b2N construct; assay type: cell-based
T1 construct: read by me as the first 25 residues of β2AR (N); expressed in transfected cells; host or cells: HEK293T

hTA1 C178S = molecular target: T2, hTA1 C178S (Homo sapiens, UniProt Q96RJ0, C178S); experiment: GloSensor cAMP accumulation assay, C178S mutant; assay type: cell-based; conditions: for C178S - Normalized Luminescence Counts (N=2): log[Compound], single replicates
T2 construct: expressed in transfected cells; host or cells: HEK293T
T2 sequence (Q96RJ0 1-339 C178S): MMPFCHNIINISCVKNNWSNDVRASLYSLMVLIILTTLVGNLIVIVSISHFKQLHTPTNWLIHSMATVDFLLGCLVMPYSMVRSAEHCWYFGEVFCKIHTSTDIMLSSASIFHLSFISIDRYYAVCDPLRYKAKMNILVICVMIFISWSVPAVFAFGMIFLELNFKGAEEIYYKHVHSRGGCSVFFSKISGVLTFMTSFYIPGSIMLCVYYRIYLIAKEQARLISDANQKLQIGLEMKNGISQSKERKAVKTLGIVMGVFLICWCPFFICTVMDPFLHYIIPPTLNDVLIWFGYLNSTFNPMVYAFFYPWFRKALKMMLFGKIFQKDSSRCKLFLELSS

hTA1 C88/178S = molecular target: T3, hTA1 C88/178S (Homo sapiens, UniProt Q96RJ0, C178S/C88S); experiment: GloSensor cAMP accumulation assay, C88S/C178S double mutant; assay type: cell-based; conditions: for Normalized Luminescence Counts (N=2): log[Compound], single replicate values
T3 construct: expressed in transfected cells; host or cells: HEK293T
T3 sequence (Q96RJ0 1-339 C88S/C178S): T2 sequence (Q96RJ0 1-339 C178S) with C88S

hTA1 W264F = molecular target: T4, hTA1 W264F (Homo sapiens, UniProt Q96RJ0, W264F); experiment: GloSensor cAMP accumulation assay, W264F mutant; assay type: cell-based;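 note: cells transiently transfected with receptor plus GloSensor, luminescence read 30 min after agonist addition at room temperature, concentration-response curves fitted by log(agonist) vs response regression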
T4 construct: expressed in transfected cells; host or cells: HEK293T
T4 sequence (Q96RJ0 1-339 W264F): T2 sequence (Q96RJ0 1-339 C178S) with S178C, W264F

hTA1 T194A = molecular target: T5, hTA1 T194A (Homo sapiens, UniProt Q96RJ0, T194A); experiment: GloSensor cAMP accumulation assay, T194A mutant
T5 sequence (Q96RJ0 1-339 T194A): T2 sequence (Q96RJ0 1-339 C178S) with S178C, T194A

[1] = read-out: Span ± SEM (Emax normalized to β-PEA)
[2] = C88S, C178S, each row is one independent experiment, 3 replicates
[3] = W246F mutant (so in the source) minus WT average

T1 sequence (Q96RJ0 with tags, fused parts or gaps): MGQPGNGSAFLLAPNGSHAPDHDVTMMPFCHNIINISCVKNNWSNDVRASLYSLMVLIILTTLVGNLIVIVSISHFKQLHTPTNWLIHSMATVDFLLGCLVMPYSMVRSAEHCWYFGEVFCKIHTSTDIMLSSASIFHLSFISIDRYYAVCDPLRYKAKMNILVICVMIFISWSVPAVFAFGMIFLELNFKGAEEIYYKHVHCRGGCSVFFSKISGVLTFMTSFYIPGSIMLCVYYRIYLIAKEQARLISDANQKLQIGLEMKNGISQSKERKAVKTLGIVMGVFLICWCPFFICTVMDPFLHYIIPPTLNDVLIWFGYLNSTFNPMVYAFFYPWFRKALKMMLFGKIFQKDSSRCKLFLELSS

CCC(CC1COC(N)=N1)c1ccccc1 (stereo not shown) [Ro5256390]
EC50 (hTA1 b2N): 1.56 nM
Emax (hTA1 b2N; [1]): 97.7 ± 9.34%
ΔpEC50 values (each mutant value - WT average), Mean (hTA1 C178S; C178S, each row one experiment (N=2), 3 replicates): -0.5545 and -0.2923
Emax (hTA1 C178S; C178S, relative to β-PEA): 120%
Emax values, Mean (hTA1 C178S; C178S, β-PEA = 100, each row one experiment (N=2), 3 replicates): 104.356 and 134.792
EC50 (hTA1 C178S; EC50, C178S, n=2): 14.1 nM
C178S - Normalized Luminescence Counts (N=2) (hTA1 C178S; M = -5): 102.446 and 115.063 and 100.063 and 98.247 and 134.327 and 139.921
C178S - Normalized Luminescence Counts (N=2) (hTA1 C178S; M = -5.522): 112.587 and 101.839 and 98.2408 and 148.866 and 141.178 and 145.097
C178S - Normalized Luminescence Counts (N=2) (hTA1 C178S; M = -6): 99.8763 and 105.203 and 90.1566 and 163.316 and 171.125 and 157.632
C178S - Normalized Luminescence Counts (N=2) (hTA1 C178S; M = -6.522): 110.577 and 98.2408 and 97.8202 and 140.041 and 136.93 and 126.219
C178S - Normalized Luminescence Counts (N=2) (hTA1 C178S; M = -7): 89.6425 and 86.2313 and 90.5771 and 109.526 and 118.68 and 112.368
C178S - Normalized Luminescence Counts (N=2) (hTA1 C178S; M = -7.522): 61.5581 and 68.0535 and 67.1189 and 100.042 and 97.9478 and 96.7511
C178S - Normalized Luminescence Counts (N=2) (hTA1 C178S; M = -8): 35.9971 and 29.5951 and 33.2867 and 60.9705 and 68.8087 and 90.3489
C178S - Normalized Luminescence Counts (N=2) (hTA1 C178S; M = -8.522): 17.2585 and 16.3239 and 17.6791 and 41.704 and 41.2253 and 41.0458
C178S - Normalized Luminescence Counts (N=2) (hTA1 C178S; M = -9): 9.361 and 5.296 and 6.978 and 20.7921 and 25.9976 and 27.6132
C178S - Normalized Luminescence Counts (N=2) (hTA1 C178S; M = -9.522): 1.184 and 0.9499 and 2.959 and 8.825 and 6.193 and 11.0392
C178S - Normalized Luminescence Counts (N=2) (hTA1 C178S; M = -10): 1.651 and 2.539 and 1.885 and 5.9234 and 4.278 and 6.671
C178S - Normalized Luminescence Counts (N=2) (hTA1 C178S; M = -10.522): 0.4359 and -0.07812 and -0.265 and 1.256 and 0.02978 and 1.197
C178S - Normalized Luminescence Counts (N=2) (hTA1 C178S; M = -11): 0.9499 and 0.763 and 0.2957 and 5.146 and 2.064 and 5.0259
C178S - Normalized Luminescence Counts (N=2) (hTA1 C178S; M = -11.522): -0.4987 and 1.2303 and -0.03139 and 3.65 and 2.333 and 2.932
C178S - Normalized Luminescence Counts (N=2) (hTA1 C178S; M = -12): 0.2023 and 1.184 and 0.4359 and 4.098 and 3.021 and 6.312
C178S - Normalized Luminescence Counts (N=2) (hTA1 C178S; M = -12.522): 0.2023 and -0.1249 and -0.03139 and 3.321 and 2.124 and 7.958
EC50 (hTA1 C178S; pEC50 values, Mean, C178S, each row one experiment (N=2), 3 replicates): 19.1 nM and 10.5 nM
Emax (hTA1 C178S; read-out: Span ± SEM (Emax normalized to β-PEA), C178S, n=2): 120%
ΔEmax values (each mutant value - WT average), Mean (hTA1 C88/178S; [2]): 2.588 and 13.0349
ΔpEC50 values (each mutant value - WT average), Mean (hTA1 C88/178S; [2]): -0.3451 and 0.337
Normalized Luminescence Counts (N=2) (hTA1 C88/178S; C88S, C178S, M = -5): 108.214 and 110.475 and 102.673 and 112.685 and 109.211 and 118.575
Normalized Luminescence Counts (N=2) (hTA1 C88/178S; C88S, C178S, M = -5.522): 107.14 and 118.277 and 96.6804 and 111.477 and 99.2423 and 137.304
Normalized Luminescence Counts (N=2) (hTA1 C88/178S; C88S, C178S, M = -6): 102.956 and 112.171 and 95.8888 and 120.841 and 90.9352 and 145.46
Normalized Luminescence Counts (N=2) (hTA1 C88/178S; C88S, C178S, M = -6.522): 97.5284 and 100.073 and 116.864 and 116.461 and 100.602 and 130.658
Normalized Luminescence Counts (N=2) (hTA1 C88/178S; C88S, C178S, M = -7): 99.1114 and 95.1539 and 92.6097 and 130.507 and 95.1643 and 125.523
Normalized Luminescence Counts (N=2) (hTA1 C88/178S; C88S, C178S, M = -7.522): 77.3448 and 82.7723 and 86.5603 and 108.607 and 127.336 and 130.961
Normalized Luminescence Counts (N=2) (hTA1 C88/178S; C88S, C178S, M = -8): 51.564 and 41.5569 and 41.3873 and 109.966 and 74.6229 and 107.852
Normalized Luminescence Counts (N=2) (hTA1 C88/178S; C88S, C178S, M = -8.522): 25.1047 and 27.2531 and 18.3768 and 63.5971 and 68.4303 and 61.3315
Normalized Luminescence Counts (N=2) (hTA1 C88/178S; C88S, C178S, M = -9): 12.0447 and 13.3451 and 14.08 and 33.9934 and 34.4465 and 30.5195
Normalized Luminescence Counts (N=2) (hTA1 C88/178S; C88S, C178S, M = -9.522): 6.334 and 4.865 and 5.4299 and 15.8687 and 15.4156 and 17.077
Normalized Luminescence Counts (N=2) (hTA1 C88/178S; C88S, C178S, M = -10): 1.925 and 5.769 and 1.359 and 9.978 and 13.6031 and 14.0562
Normalized Luminescence Counts (N=2) (hTA1 C88/178S; C88S, C178S, M = -10.522): 1.303 and 1.416 and 1.359 and 5.9 and 3.6345 and 7.562
Normalized Luminescence Counts (N=2) (hTA1 C88/178S; C88S, C178S, M = -11): 1.02 and 0.285 and 0.3416 and 4.3897 and 3.181 and 3.937
Normalized Luminescence Counts (N=2) (hTA1 C88/178S; C88S, C178S, M = -11.522): 1.416 and 0.4547 and 1.585 and 3.03 and 0.6137 and 2.275
Normalized Luminescence Counts (N=2) (hTA1 C88/178S; C88S, C178S, M = -12): 0.0589 and 1.303 and -0.3369 and 0.9158 and 0.009559 and 0.7648
Normalized Luminescence Counts (N=2) (hTA1 C88/178S; C88S, C178S, M = -12.522): -0.05417 and 0.8504 and 0.7373 and 2.577 and 0.4627 and -0.2925
Emax values, Mean (hTA1 C88/178S; C88S, C178S, normalized (β-PEA = 100), each row is one independent experiment, 3 replicates): 105.892 and 116.339
EC50 (hTA1 C88/178S; EC50, C88/178S, n=2): 5.38 nM
EC50 (hTA1 C88/178S; pEC50 values, Mean, C88S, C178S, each row is one independent experiment, 3 replicates): 11.8 nM and 2.46 nM
Emax (hTA1 C88/178S; [1]): 111 ± 5.22%
Emax values, Mean (hTA1 W264F): 62.0152 and 91.1137
EC50 (hTA1 W264F; EC50, W264F, n=2): 127 nM
ΔEmax values (each mutant value - WT average) (hTA1 W264F; [3]): -41.2891
ΔpEC50 values (each mutant value - WT average) (hTA1 W264F; [3]): -1.382 and -1.371
EC50 (hTA1 W264F; W246F mutant (so in the source), each line an independent experiment, 3 replicates, read-out: pEC50 values (Mean) (converted)): 129 nM and 125 nM
Emax (hTA1 W264F; read-out: Span ± SEM (Emax normalized to β-PEA), W264F, n=2): 76.6 ± 14.5%
EC50 (hTA1 T194A; EC50, T194A): 34.8 nM
Emax values, Mean (hTA1 T194A; T149A (so in the source), single experiments (3 replicates each), β-PEA = 100): 128.602 and 110.169 and 108.613
reduction in potency vs wild type (hTA1 T194A; T194A): over 5 fold
EC50 (hTA1 T194A; pEC50 values, Mean, T149A (so in the source), single experiments (3 replicates each)): 34.8 nM and 27.7 nM and 14.2 nM
EC50 (hTA1 T194A; pEC50 ± SEM, T194A): 24 nM
Emax (hTA1 T194A; [1]): 116 ± 9.22%
